Assay results published in US20130123222A1, “Synergistic Anti-Cancer Activity of SR16388 with Anti-Mitotic Drugs” (SRI INTERNATIONAL, INC., priority 2011, published 2013).

Legend:
Assay type in all cases: cell-based
cancer cell lines = test: Combination cell viability assay, general observations on ratios and confirmed synergy; conditions: for interaction with SR16388 (confirmed): in combination with SR16388
Description: Cells were treated with compounds alone or in combination for three days and CellTiter-Glo® Luminescent Cell Viability Assay (Promega Corp.) was used as the endpoint to measure cell viability. […] Cells were harvested on Day-1 (FIG. 1A) and re-supspended to the corresponding seeding density and seeded with Wellmate (ThermoFisher) to 384 plates (BD or GBO). […] Master plates were made with Janus (PerkinElmer), then further diluted and added to the cell plates with Matrix Platemate (Thermo) on Day 0. CellTiter-Glo® Luminescent Cell Viability Assay (Promega Corp.) was used to measure ATP as an indicator of viable cells on Day 3 using Envision (PerkinElmer) and back up reader Analyst HT (MDS) and Gen5 (BioTek). Relative Luminescent Units (RLU) were plotted against corresponding drug concentrations and fitted with standard four parameter sigmoidal curve with custom coded R program or Calcusyn (Biosoft, Cambridge, UK).

UACC62 = test: 11×7 synergism hit rate; conditions: Melanoma UACC62, combination with SR16388
Source text: (§1) SR16388 was synthesized in house.
(§2) Within the same type of cancer cells, some cell lines have more synergistic hits than others. Melanoma and breast cancer cell lines had the highest hit rate.

K562 = test: 11×7 synergism hit rate; conditions: Leukemia K562, combination with SR16388
Source text: as §1, §2

SKMEL5 = test: 11×7 synergism hit rate; conditions: Melanoma SKMEL5, combination with SR16388
Source text: as §1, §2

BT549 = test: 11×7 synergism hit rate; conditions: Breast Cancer BT549, combination with SR16388
Source text: as §1, §2

HCT15 = test: 11×7 synergism hit rate; conditions: Colon Cancer HCT15, combination with SR16388
Source text: as §1, §2

HT29 = test: 11×7 synergism hit rate; conditions: Colon Cancer HT29, combination with SR16388
Source text: as §1, §2

UACC257 = test: 11×7 synergism hit rate; conditions: Melanoma UACC257, combination with SR16388
Source text: as §1, §2

SR = test: 11×7 synergism hit rate; conditions: Leukemia SR, combination with SR16388
Source text: as §1, §2

HOP62 = test: 11×7 synergism hit rate; conditions: NSCLC HOP62, combination with SR16388
Source text: as §1, §2

NCIH460 = test: 11×7 synergism hit rate; conditions: NSCLC NCIH460, combination with SR16388
Source text: as §1, §2

ADRRES = test: 11×7 synergism hit rate; conditions: Ovarian Cancer ADRRES, combination with SR16388
Source text: as §1, §2

CCRFCEM = test: 11×7 synergism hit rate; conditions: Leukemia CCRFCEM, combination with SR16388
Source text: as §1, §2

SNB19 = test: 11×7 synergism hit rate; conditions: CNS Cancer SNB19, combination with SR16388
Source text: as §1, §2

CAKI1 = test: 11×7 synergism hit rate; conditions: Renal Cancer CAKI1, combination with SR16388
Source text: as §1, §2

TK10 = test: 11×7 synergism hit rate; conditions: Renal Cancer TK10, combination with SR16388
Source text: as §1, §2

SF295 = test: 11×7 synergism hit rate; conditions: CNS Cancer SF295, combination with SR16388
Source text: as §1, §2

KM12 = test: 11×7 synergism hit rate; conditions: Colon Cancer KM12, combination with SR16388
Source text: as §1, §2

EKVX = test: 11×7 synergism hit rate; conditions: NSCLC EKVX, combination with SR16388
Source text: as §1, §2

HCT116 = test: 11×7 synergism hit rate; conditions: Colon Cancer HCT116, combination with SR16388
Source text: as §1, §2

NCIH226 = test: 11×7 synergism hit rate; conditions: NSCLC NCIH226, combination with SR16388
Source text: as §1, §2

SN12C = test: 11×7 synergism hit rate; conditions: Renal Cancer SN12C, combination with SR16388
Source text: as §1, §2

HS578T = test: 11×7 synergism hit rate; conditions: Breast Cancer HS578T, combination with SR16388
Source text: as §1, §2

COLO205 = test: 11×7 synergism hit rate; conditions: Colon Cancer COLO205, combination with SR16388
Source text: as §1, §2

OVCAR3 = test: 11×7 synergism hit rate; conditions: Ovarian Cancer OVCAR3, combination with SR16388
Source text: as §1, §2

A498 = test: 11×7 synergism hit rate; conditions: Renal Cancer A498, combination with SR16388
Source text: as §1, §2

HL60 = test: 11×7 synergism hit rate; conditions: Leukemia HL60, combination with SR16388
Source text: as §1, §2

SNB75 = test: 11×7 synergism hit rate; conditions: CNS Cancer SNB75, combination with SR16388
Source text: as §1, §2

PCS = test: 11×7 synergism hit rate; conditions: Prostate Cancer PCS, combination with SR16388
Source text: as §1, §2

SKMEL2 = test: 11×7 synergism hit rate; conditions: Melanoma SKMEL2, combination with SR16388
Source text: as §1, §2

DU145 = test: 11×7 synergism hit rate; conditions: Prostate Cancer DU145, combination with SR16388
Source text: as §1, §2

SF268 = test: 11×7 synergism hit rate; conditions: CNS Cancer SF268, combination with SR16388
Source text: as §1, §2

MCF7 = test: 11×7 synergism hit rate; conditions: Breast Cancer MCF7, combination with SR16388
Source text: as §1, §2

7860 = test: 11×7 synergism hit rate; conditions: Renal Cancer 7860, combination with SR16388
Source text: as §1, §2

SKMEL28 = test: 11×7 synergism hit rate; conditions: Melanoma SKMEL28, combination with SR16388
Source text: as §1, §2

ACHN = test: 11×7 synergism hit rate; conditions: Renal Cancer ACHN, combination with SR16388
Source text: as §1, §2

NCIH23 = test: 11×7 synergism hit rate; conditions: NSCLC NCIH23, combination with SR16388
Source text: as §1, §2

HOP92 = test: 11×7 synergism hit rate; conditions: NSCLC HOP92, combination with SR16388
Source text: as §1, §2

OVCAR8 = test: 11×7 synergism hit rate; conditions: Ovarian Cancer OVCAR8, combination with SR16388
Source text: as §1, §2

SMILES	% Hit rate (UACC62) [%]	% Hit rate (K562) [%]	% Hit rate (SKMEL5) [%]	% Hit rate (BT549) [%]	% Hit rate (HCT15) [%]	% Hit rate (HT29) [%]	% Hit rate (UACC257) [%]	% Hit rate (SR) [%]	% Hit rate (HOP62) [%]	% Hit rate (NCIH460) [%]	% Hit rate (ADRRES) [%]	% Hit rate (CCRFCEM) [%]	% Hit rate (SNB19) [%]	% Hit rate (CAKI1) [%]	% Hit rate (TK10) [%]	% Hit rate (SF295) [%]	% Hit rate (KM12) [%]	% Hit rate (EKVX) [%]	% Hit rate (NCIH226) [%]	% Hit rate (SN12C) [%]	further results
CC(=O)O[C@@]12CO[C@@H]1C[C@H](O)[C@@]1(C)C(=O)[C@H](O)C3=C(C)[C@@H](OC(=O)[C@H](O)[C@@H](NC(=O)OC(C)(C)C)c4ccccc4)C[C@@](O)([C@@H](OC(=O)c4ccccc4)[C@H]21)C3(C)C [Docetaxel]	16	0	10	5	12	21	18	0	1	31	3	12	18	16	10	8	6	0	19	8	interaction with SR16388 (confirmed) (cancer cell lines): synergistic anti-proliferation effect; % Hit rate (HCT116): 18%; % Hit rate (HS578T): 22%; % Hit rate (COLO205): 35%; % Hit rate (OVCAR3): 8%; % Hit rate (A498): 4%; % Hit rate (HL60): 21%; % Hit rate (SNB75): 5%; % Hit rate (PCS): 3%; % Hit rate (SKMEL2): 12%; % Hit rate (DU145): 1%; % Hit rate (SF268): 18%; % Hit rate (MCF7): 19%; % Hit rate 7860: 10%; % Hit rate (SKMEL28): 31%; % Hit rate (ACHN): 4%; % Hit rate (NCIH23): 5%; % Hit rate (HOP92): 4%; % Hit rate (OVCAR8): 6%
CC(=O)O[C@H]1C(=O)[C@@]2(C)[C@H]([C@H](OC(=O)c3ccccc3)[C@]3(O)C[C@H](OC(=O)[C@H](O)[C@@H](NC(=O)c4ccccc4)c4ccccc4)C(C)=C1C3(C)C)[C@]1(OC(C)=O)CO[C@@H]1C[C@@H]2O [Paclitaxel]	25	12	12	3	14	22	35	1	1	35	1	14	27	22	13	8	10	0	27	13	interaction with SR16388 (confirmed) (cancer cell lines): synergistic anti-proliferation effect; interaction with more paclitaxel in the mixture (cancer cell lines; more paclitaxel than SR16388:Paclitaxel 67:33): antagonist interactions; % Hit rate (HS578T): 23%; % Hit rate (COLO205): 17%; % Hit rate (OVCAR3): 8%; % Hit rate (A498): 10%; % Hit rate (HL60): 25%; % Hit rate (SNB75): 13%; % Hit rate (PCS): 0%; % Hit rate (SKMEL2): 29%; % Hit rate (DU145): 3%; % Hit rate (SF268): 22%; % Hit rate (MCF7): 31%; % Hit rate 7860: 22%; % Hit rate (SKMEL28): 35%; % Hit rate (ACHN): 14%; % Hit rate (NCIH23): 4%; % Hit rate (HOP92): 10%; % Hit rate (OVCAR8): 13%
CC[C@]1(O)C[C@@H]2CN(CCc3c([nH]c4ccccc34)[C@@](C(=O)OC)(c3cc4c(cc3OC)N(C)[C@H]3[C@@](O)(C(=O)OC)[C@H](OC(C)=O)[C@]5(CC)C=CCN6CC[C@]43[C@@H]65)C2)C1 [Vinblastine]	10	3	5	1	10	8	6	0	0	16	0	3	12	12	4	0	1	1	8	1	% Hit rate (HCT116): 6%; % Hit rate (HS578T): 8%; % Hit rate (COLO205): 12%; % Hit rate (OVCAR3): 4%; % Hit rate (A498): 4%; % Hit rate (HL60): 16%; % Hit rate (SNB75): 3%; % Hit rate (PCS): 1%; % Hit rate (SKMEL2): 3%; % Hit rate (DU145): 0%; % Hit rate (SF268): 6%; % Hit rate (MCF7): 17%; % Hit rate 7860: 10%; % Hit rate (SKMEL28): 8%; % Hit rate (ACHN): 3%; % Hit rate (NCIH23): 4%; % Hit rate (HOP92): 6%; % Hit rate (OVCAR8): 5%
CC[C@]1(O)C[C@H]2CN(CCc3c([nH]c4ccccc34)[C@@](C(=O)OC)(c3cc4c(cc3OC)N(C=O)[C@H]3[C@@](O)(C(=O)OC)[C@H](OC(C)=O)[C@]5(CC)C=CCN6CC[C@]43[C@@H]65)C2)C1 [Vincristine]	23	8	14	9	9	10	25	0	0	19	1	8	27	13	14	21	6	1	8	14	interaction with SR16388 (confirmed) (cancer cell lines): synergistic anti-proliferation effect; % Hit rate (HCT116): 6%; % Hit rate (HS578T): 17%; % Hit rate (COLO205): 14%; % Hit rate (OVCAR3): 3%; % Hit rate (A498): 12%; % Hit rate (HL60): 5%; % Hit rate (SNB75): 9%; % Hit rate (PCS): 1%; % Hit rate (SKMEL2): 25%; % Hit rate (DU145): 1%; % Hit rate (SF268): 18%; % Hit rate (MCF7): 25%; % Hit rate 7860: 18%; % Hit rate (SKMEL28): 22%; % Hit rate (ACHN): 8%; % Hit rate (NCIH23): 4%; % Hit rate (HOP92): 8%; % Hit rate (OVCAR8): 10%
